In the test the target is T1, aryl hydrocarbon receptor (AHR) (Homo sapiens, UniProt P35869).
T1 sequence (P35869 11-848): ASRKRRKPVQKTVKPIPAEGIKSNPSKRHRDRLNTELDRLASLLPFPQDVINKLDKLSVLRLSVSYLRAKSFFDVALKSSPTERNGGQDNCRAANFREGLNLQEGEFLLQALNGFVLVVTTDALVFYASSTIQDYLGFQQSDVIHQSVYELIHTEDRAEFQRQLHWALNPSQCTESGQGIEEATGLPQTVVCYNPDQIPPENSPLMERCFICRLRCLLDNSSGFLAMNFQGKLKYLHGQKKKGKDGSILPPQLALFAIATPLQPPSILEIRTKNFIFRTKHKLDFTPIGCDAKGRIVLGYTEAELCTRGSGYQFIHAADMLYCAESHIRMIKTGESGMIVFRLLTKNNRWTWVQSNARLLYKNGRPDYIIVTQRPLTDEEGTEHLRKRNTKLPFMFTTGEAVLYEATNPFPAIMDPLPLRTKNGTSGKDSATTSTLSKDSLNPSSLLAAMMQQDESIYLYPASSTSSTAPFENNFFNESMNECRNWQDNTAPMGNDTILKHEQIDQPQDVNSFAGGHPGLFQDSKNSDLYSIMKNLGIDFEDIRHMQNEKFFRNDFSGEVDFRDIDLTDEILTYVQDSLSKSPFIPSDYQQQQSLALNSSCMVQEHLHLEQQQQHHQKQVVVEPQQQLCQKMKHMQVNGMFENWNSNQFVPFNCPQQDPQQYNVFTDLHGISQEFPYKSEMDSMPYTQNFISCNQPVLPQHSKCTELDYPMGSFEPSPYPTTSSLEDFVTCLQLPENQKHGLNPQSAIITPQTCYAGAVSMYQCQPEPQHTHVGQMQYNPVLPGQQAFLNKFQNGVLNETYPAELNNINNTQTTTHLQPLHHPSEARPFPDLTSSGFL
Kind of test: Inhibition of AHR target gene CYP1B1 expression (RT-qPCR) in MOLM-14 cells, endogenous AHR; functional readout only. In kind it is cell-based.

With IK-364, 5 nM corresponded to half-maximal inhibition (IC50). That is a single-digit nanomolar value.

Values taken from paper PMC12722994, “The aryl hydrocarbon receptor is associated with monocytic AML and innate immune resistance reversible with an AHR inhibitor” (Frontiers in Immunology, 2025).
